Laboratory results from ChEMBL document CHEMBL3870361, “Discovery of Novel Seven-Membered Prostacyclin Analogues as Potent and Selective Prostaglandin FP and EP3 Dual Agonists” (ACS Med Chem Lett, 2017).

Tests used:
[1] = target: Prostaglandin F2-alpha receptor (Homo sapiens, UniProt P43088); experiment: Agonist activity at human prostaglandin FP receptor expressed in CHO cells assessed as increase in intracellular calcium level by Fura 2-AM dye based fluorescence assay; type: functional, cell-based
Sequence of Prostaglandin F2-alpha receptor (P43088 whole entry): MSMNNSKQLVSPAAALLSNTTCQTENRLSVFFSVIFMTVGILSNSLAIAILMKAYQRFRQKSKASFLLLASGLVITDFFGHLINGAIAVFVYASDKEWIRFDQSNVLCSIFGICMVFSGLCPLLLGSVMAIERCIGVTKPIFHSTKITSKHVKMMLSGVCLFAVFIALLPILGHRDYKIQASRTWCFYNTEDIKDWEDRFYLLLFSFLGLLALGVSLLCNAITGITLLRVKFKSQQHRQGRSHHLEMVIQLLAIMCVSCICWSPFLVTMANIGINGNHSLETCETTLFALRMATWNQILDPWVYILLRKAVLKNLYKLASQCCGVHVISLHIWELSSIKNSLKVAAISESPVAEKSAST

[2] = target: T1, Prostaglandin E2 receptor EP3 subtype (Homo sapiens, UniProt P43115); experiment: Agonist activity at human EP3 receptor expressed in CHO cells assessed as increase in intracellular calcium level by Fura 2-AM dye based fluorescence assay; type: functional, cell-based
T1 sequence (P43115 whole entry): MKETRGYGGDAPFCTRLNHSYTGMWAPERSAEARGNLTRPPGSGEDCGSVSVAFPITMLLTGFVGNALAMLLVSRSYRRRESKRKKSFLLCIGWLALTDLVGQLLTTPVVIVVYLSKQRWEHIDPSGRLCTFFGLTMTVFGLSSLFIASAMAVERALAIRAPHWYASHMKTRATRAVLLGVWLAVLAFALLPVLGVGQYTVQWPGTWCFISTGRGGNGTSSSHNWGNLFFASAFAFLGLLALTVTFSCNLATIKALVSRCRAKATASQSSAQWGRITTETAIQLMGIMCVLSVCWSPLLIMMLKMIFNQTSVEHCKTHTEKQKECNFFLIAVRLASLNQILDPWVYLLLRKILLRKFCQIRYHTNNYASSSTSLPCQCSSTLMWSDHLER

Prostacyclin receptor = Prostacyclin receptor (Homo sapiens, UniProt P43119); experiment: Agonist activity at human IP receptor expressed in CHO cells assessed as increase in intracellular cAMP level by HTRF method; type: cell-based
Sequence of Prostacyclin receptor (P43119 whole entry): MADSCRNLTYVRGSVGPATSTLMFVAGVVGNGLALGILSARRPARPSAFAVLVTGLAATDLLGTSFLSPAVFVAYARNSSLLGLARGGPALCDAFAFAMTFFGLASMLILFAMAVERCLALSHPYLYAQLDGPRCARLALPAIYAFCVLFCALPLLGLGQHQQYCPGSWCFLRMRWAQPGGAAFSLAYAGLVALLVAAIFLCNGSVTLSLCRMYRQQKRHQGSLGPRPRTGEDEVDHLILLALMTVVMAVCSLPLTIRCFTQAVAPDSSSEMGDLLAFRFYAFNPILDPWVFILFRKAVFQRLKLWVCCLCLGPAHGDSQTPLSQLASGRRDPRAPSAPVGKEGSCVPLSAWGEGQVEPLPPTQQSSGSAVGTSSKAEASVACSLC

[3] = target: Prostaglandin E2 receptor EP2 subtype (Homo sapiens, UniProt P43116); experiment: Agonist activity at EP2 receptor (unknown origin)
Sequence of Prostaglandin E2 receptor EP2 subtype (P43116 whole entry): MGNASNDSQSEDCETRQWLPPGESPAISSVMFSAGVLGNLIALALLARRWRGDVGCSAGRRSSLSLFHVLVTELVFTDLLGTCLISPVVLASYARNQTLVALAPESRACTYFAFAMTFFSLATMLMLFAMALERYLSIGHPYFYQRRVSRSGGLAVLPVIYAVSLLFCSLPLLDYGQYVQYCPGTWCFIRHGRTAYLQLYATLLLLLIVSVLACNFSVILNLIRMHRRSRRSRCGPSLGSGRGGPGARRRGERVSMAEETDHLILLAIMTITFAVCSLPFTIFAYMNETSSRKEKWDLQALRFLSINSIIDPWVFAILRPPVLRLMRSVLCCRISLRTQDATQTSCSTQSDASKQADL

[4] = target: Prostaglandin E2 receptor EP4 subtype (Homo sapiens, UniProt P35408); experiment: Agonist activity at EP4 receptor (unknown origin)
Sequence of Prostaglandin E2 receptor EP4 subtype (P35408 whole entry): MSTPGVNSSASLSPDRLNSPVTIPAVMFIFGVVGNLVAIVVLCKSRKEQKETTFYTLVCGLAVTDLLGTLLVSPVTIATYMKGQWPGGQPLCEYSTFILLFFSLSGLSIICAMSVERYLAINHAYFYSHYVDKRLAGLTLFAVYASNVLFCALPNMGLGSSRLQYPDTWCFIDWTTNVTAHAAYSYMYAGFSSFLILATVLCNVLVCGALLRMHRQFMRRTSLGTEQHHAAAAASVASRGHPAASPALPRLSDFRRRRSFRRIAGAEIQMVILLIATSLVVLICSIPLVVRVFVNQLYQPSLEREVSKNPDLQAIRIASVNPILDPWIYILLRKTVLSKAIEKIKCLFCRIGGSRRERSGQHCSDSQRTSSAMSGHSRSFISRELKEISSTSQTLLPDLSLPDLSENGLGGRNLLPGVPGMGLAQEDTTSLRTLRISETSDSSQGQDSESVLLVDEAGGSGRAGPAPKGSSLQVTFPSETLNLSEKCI

EC50 [1] [nM] | EC50 [2] [nM] | EC50 (Prostacyclin receptor) [nM] | EC50 [3] [nM] | EC50 [4] [nM] | SMILES
7.1 | 3.6 | – | – | – | O=C(O)CCC[C@H]1CC[C@@H]2[C@@H](/C=C/[C@@H](O)COc3ccccc3)[C@H](O)C[C@@H]2O1
73 | 13 | > 10000 | – | – | O=C(O)CCCCC1=CC[C@@H]2[C@@H](/C=C/[C@@H](O)COc3ccccc3)[C@H](O)C[C@@H]2OC1
530 | 2700 | > 10000 | – | – | O=C(O)CCC1=CC[C@@H]2[C@@H](/C=C/[C@@H](O)COc3ccccc3)[C@H](O)C[C@@H]2OC1
22 | 18 | > 10000 | – | – | O=C(O)CC[C@H]1CCC[C@@H]2[C@@H](/C=C/[C@@H](O)COc3ccccc3)[C@H](O)C[C@@H]2O1
640 | 4700 | > 10000 | – | – | O=C(O)CCCC1=CC[C@@H]2[C@@H](/C=C/[C@@H](O)COc3ccccc3)[C@H](O)C[C@@H]2OC1
43 | 540 | > 10000 | – | – | O=C(O)CCCC[C@H]1CC[C@@H]2[C@@H](/C=C/[C@@H](O)COc3ccccc3)[C@H](O)C[C@@H]2OC1
110 | 4800 | > 10000 | – | – | O=C(O)CC[C@H]1CC[C@@H]2[C@@H](/C=C/[C@@H](O)COc3ccccc3)[C@H](O)C[C@@H]2OC1
280 | 2.3 | > 10000 | – | – | O=C(O)CCC[C@@H]1CC[C@@H]2[C@@H](/C=C/[C@@H](O)COc3ccccc3)[C@H](O)C[C@@H]2OC1
880 | 6400 | > 10000 | – | – | O=C(O)CCCCCC1=CC[C@@H]2[C@@H](/C=C/[C@@H](O)COc3ccccc3)[C@H](O)C[C@@H]2OC1
3.8 | 27 | 2000 | – | – | O=C(O)CC[C@@H]1CCC[C@@H]2[C@@H](/C=C/[C@@H](O)COc3ccccc3)[C@H](O)C[C@@H]2O1
28 | 4 | > 10000 | > 10000 | > 10000 | O=C(O)CCC[C@H]1CC[C@@H]2[C@@H](/C=C/[C@@H](O)COc3ccccc3)[C@H](O)C[C@@H]2OC1
16 | 0.89 | – | – | – | O=C(O)CCC/C=C\C[C@H]1C(=O)C[C@@H](O)[C@@H]1/C=C/[C@@H](O)COc1ccccc1
110 | 130 | > 10000 | – | – | O=C(O)CCCC[C@@H]1CC[C@@H]2[C@@H](/C=C/[C@@H](O)COc3ccccc3)[C@H](O)C[C@@H]2OC1
4.1 | 4.1 | 26 | – | – | O=C(O)CCC[C@@H]1CC[C@@H]2[C@@H](/C=C/[C@@H](O)COc3ccccc3)[C@H](O)C[C@@H]2O1
1000 | 870 | > 10000 | – | – | O=C(O)CC[C@@H]1CC[C@@H]2[C@@H](/C=C/[C@@H](O)COc3ccccc3)[C@H](O)C[C@@H]2OC1
3.6 | 3400 | > 10000 | – | – | O=C(O)CCC/C=C\C[C@@H]1[C@@H](/C=C/[C@@H](O)COc2cccc(C(F)(F)F)c2)[C@H](O)C[C@@H]1O [FLUPROSTENOL]
